This is an account of results in patent US8304448B2, “Method for the treatment of metabolic disorder containing benzazole derivatives as an active ingredient” (Korea Research Institute of Bioscience and Biotechnology, priority 2006, dated 2012).

Test [1] deals with DGAT. Nature of the test: Assay for inhibitory activity against DGAT ([14C]triacylglycerol formation, rat microsomal protein). In kind it is biochemical. The note with it: rat microsomal protein as enzyme source.
In test [2] the test system is DGAT. Nature of the test: Assay for inhibitory effect on DGAT in cell (intracellular triglyceride production from [14C]acetate in HepG2 cells). The test is classed as cell-based, human. As to the method:
The effect of the benzazole derivatives of Chemical Formula 1 in accordance with the present invention on DGAT was examined with HepG2 cells, hepatic cells derived from the human liver, as follows.
HepG2 cells, purchased from ATCC, were cultured in Eagle's minimum essential medium (MEM), 2 mM L-glutamine, with Earle's balanced salt solution (BSS) adjusted to contain, 1.5 g/L sodium bicarbonate, 0.1 mM non-essential amino acids and 1 mM sodium pyruvate, supplemented with 10% fetal bovine serum (FBS) and 1% antibiotics (100 U/ml penicillin and 100 µg/ml streptomycin) at 37° C. in a 5% CO2 incubator.
Intracellular DGAT activity was represented by the amount of triglycerides produced in the cultured HepG2 cells while the compounds (4, 8, 10, 22, 24, 25, 26, 39 and 31) of Chemical Formula 1 were assayed for inhibitory activity against DGAT by measuring the change in intracellular triglyceride production after the addition thereof.
Cells were plated at a density of 1×10^6 cell/ml per well into 24-well plates and incubated for 24 hours. Then, the medium was exchanged with FBS-free MEM and pre-treated with samples for 1 hour. Thereafter, 0.2 mCi of [^14C]acetate (Amersham) was added as a substrate to the cells, followed by incubation for 1 hour. The production of triglyceride was catalyzed by DGAT so that DGAT activity was determined by the amount of the triglyceride product, which could be measured by radioactivity. For use, the samples were dissolved in dimethyl sulfoxide (DMSO). In a control, triglycerides were synthesized using DMSO without any sample, with the production yield thereof given as 100.
The amount of the glyceride products synthesized was determined as follows. After completion of synthesis, the cells were suspended in PBS (phosphate-buffer-saline) to remove the substrate [^14C]acetate, whether unabsorbed into the cells or remaining unreacted, and total lipids, including triglycerides, were extracted twice for 30 min with 0.5 ml of an extraction solvent mixture (hexane:isopropanol=3:2, v:v). 1 ml of the extract was concentrated with nitrogen gas.
The total lipid residue thus formed was dissolved in an organic solvent mixture (chloroform:methanol=2:1) and loaded dropwise onto a thin layer chromatography plate (TLC; silica gel 60F254, 0.5 mm, Merck) using a mixture of 80:20:1 hexane:diethylether:acetic acid (v:v:v) as a developing solvent. After the separation of triglycerides (Rf value: 0.4) on TLC, the plate was brought into contact with an autoradiographic film for three hours, followed by image analysis (BAS-1500, Fuji Photo Film Co. Ltd.) to determine the [^14C] radioactivity of the triglycerides. The cells left after the extraction were suspended in 0.3 ml of a 0.1 N sodium hydroxide solution to measure the cellular protein concentration thereof.
The empirical values were obtained by dividing triglyceride radioactivity by protein level, with correction for experimental errors between test groups.

In the case of `O=C(NCc1ccco1)c1ccc2oc(COc3ccc(C45CC6CC(CC(C6)C4)C5)cc3)nc2c1` [Cpd. 22, 2-(4-adamantan-1-yl-phenoxymethyl)-benzoxazole-5-carboxylic acid (furan-2-ylmethyl)-amide], the “DGAT (% inhibition in 5 μM)” value in test [1] (5 μM) is recorded as 42.8%. Besides, the “DGAT (% inhibition in 25 μM)” value in test [1] (25 μM) was 78.03%. For the same compound, the “inhibition of the biosynthesis of triglycerides” value in test [2] (10 μM) was found to be 32.2%. For the same compound, the “Production Yield of Triglyceride (%)” value in test [2] (final level 10 μM, DMSO control given as 100) came out at 67.8 ± 7.2%.
